Measured values taken from ChEMBL document CHEMBL1149401, “Isolation and inhibitory activity against ERK phosphorylation of hydroxyanthraquinones from rhubarb” (2006).
Active and inactive are the calls of the source. The calls are words filed in the database; no cut-off is given here.

Legend:
[1] = target: Platelet-derived growth factor receptor (Homo sapiens) (UniProt P09619+P16234); assay: Inhibitory activity on PDGF-induced ERK phosphorylation in NIH3T3 cells at 20 uM; assay type: cell-based
[2] = target: Epidermal growth factor receptor (Homo sapiens) (UniProt P00533); assay: Inhibitory activity on EGF-induced ERK phosphorylation in prostate cancer PC3 cell line at 20 uM; assay type: cell-based; details: PC-3
Sequence of Epidermal growth factor receptor (Homo sapiens) (P00533 whole entry): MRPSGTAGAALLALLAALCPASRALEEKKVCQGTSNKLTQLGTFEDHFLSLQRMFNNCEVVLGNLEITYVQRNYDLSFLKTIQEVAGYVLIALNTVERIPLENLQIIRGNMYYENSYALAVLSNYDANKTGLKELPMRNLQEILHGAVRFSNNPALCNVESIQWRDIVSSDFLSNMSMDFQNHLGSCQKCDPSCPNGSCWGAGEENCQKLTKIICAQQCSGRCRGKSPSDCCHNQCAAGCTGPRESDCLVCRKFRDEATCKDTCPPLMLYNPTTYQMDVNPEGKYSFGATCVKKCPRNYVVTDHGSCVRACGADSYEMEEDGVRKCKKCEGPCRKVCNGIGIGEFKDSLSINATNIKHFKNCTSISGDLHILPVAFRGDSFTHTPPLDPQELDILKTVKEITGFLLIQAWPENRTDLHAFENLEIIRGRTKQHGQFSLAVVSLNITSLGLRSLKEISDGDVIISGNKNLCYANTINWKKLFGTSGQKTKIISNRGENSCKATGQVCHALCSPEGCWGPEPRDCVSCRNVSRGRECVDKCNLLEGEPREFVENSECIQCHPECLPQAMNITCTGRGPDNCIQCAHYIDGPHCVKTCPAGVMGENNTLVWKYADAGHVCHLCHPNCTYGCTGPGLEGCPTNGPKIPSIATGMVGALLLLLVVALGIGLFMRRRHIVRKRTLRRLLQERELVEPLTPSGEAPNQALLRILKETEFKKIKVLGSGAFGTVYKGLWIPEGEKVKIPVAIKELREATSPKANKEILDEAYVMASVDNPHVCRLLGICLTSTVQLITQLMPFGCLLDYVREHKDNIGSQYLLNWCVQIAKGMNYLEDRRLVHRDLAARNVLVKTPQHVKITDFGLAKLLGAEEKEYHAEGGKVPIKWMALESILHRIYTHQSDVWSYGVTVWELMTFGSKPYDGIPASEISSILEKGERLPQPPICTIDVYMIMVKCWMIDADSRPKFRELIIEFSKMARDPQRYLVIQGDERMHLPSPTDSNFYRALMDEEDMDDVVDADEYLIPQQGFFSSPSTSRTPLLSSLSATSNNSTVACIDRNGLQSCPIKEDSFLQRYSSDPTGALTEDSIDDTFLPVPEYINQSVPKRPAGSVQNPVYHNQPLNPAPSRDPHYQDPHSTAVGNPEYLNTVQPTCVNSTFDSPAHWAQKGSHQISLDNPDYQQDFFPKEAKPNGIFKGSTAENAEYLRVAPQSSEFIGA

PC-3 = assay: Antiproliferative activity against prostate cancer PC3 cell line at 20 uM by MTT method; assay type: functional; details: Homo sapiens
A-431 = assay: Antiproliferative activity against human epidermal carcinoma A431 cell line at 20 uM by MTT method; assay type: functional
Fusarium oxysporum = assay: Antifungal activity against Fusarium oxysporum at 0.5 mg/ml; assay type: functional
Fusarium graminearum = assay: Antifungal activity against Gibberella zeae at 0.5 mg/ml; assay type: functional
Phytophthora infestans = assay: Antifungal activity against Phytopthora infestans at 0.5 mg/ml; assay type: functional

SMILES | Activity [1] | Activity [2] | inhibition at 20 µM (PC-3) | inhibition at 20 µM (A-431) | inhibition at 500 µg/mL (Fusarium oxysporum) | inhibition at 500 µg/mL (Fusarium graminearum) | inhibition at 500 µg/mL (Phytophthora infestans) | inhibition (PC-3) | inhibition (A-431)
O=C1c2cccc(O)c2C(=O)c2c(O)cc(CO)cc21 [ALOE-EMODIN] | inactive | Active | 63.4% | 73.6% | 28.8% | 37.1% | 24.4% |  | 
Cc1cc(O)c2c(c1)C(=O)c1cc(O)cc(O)c1C2=O [EMODIN] | inactive |  |  |  | 9.37% | 25.7% | 21.2% | inactive | inactive
Cc1cc(O)c2c(c1)C(=O)c1cccc(O)c1C2=O [CHRYSOPHANOL] | inactive |  | 19.5% | 21.1% | 5.4% | 0% | 2.4% |  | 
O=C(O)c1cc(O)c2c(c1)C(=O)c1cccc(O)c1C2=O [RHEIN] | inactive |  | 54.2% |  | 39.8% | 33.4% | 39.5% |  | inactive
COc1cc(O)c2c(c1)C(=O)c1cc(C)cc(O)c1C2=O [PHYSCION] | inactive |  | 73.2% | 80.5% | 0% | 10.1% | 19.1% |  | 
